Source: US12516085B2, “Methods and compositions for treating Myc-driven cancers” (Sanford Burnham Prebys Medical Discovery Institute, priority 2019, dated 2026)
“Also recorded” adds a separate entry of the source.

Tests used:
Assay type in all cases: cell-based
U2OS-HNB^i = assay: Proliferation after Doxycycline-induced HNB expression, U2OS-HNB^i; settings: following Doxycycline treatment
Procedure: (§1) In addition, an inducible lentiviral system was developed, in which the transgene could be expressed under a Doxycycline inducible promoter. The system was verified by inserting eGFP as the transgene and by flow analysis of GFP^+ cells in absence and presence of doxycycline as shown in FIG. 8. […] The same system was used to clone HNB under the regulation of a Doxycycline inducible promoter and generate the cell lines MSTO-211H-HNB^i and U2OS-HNB^i. […] Western blot analysis was performed of Myc protein in Hi-Myc cell line MSTO-211H-HNB^i.

[1] = test system: Hi- and Lo-Myc cell lines; assay: Proliferation of Hi- and Lo-Myc cell lines transfected with lentiviral vectors expressing GFP, HNB or HNB(ATG>TGA); settings: 8 Hi- and Lo-Myc cell lines; lentiviral overexpression
From the text: To determine the function of the HNB, the Hi- and Lo-Myc cell lines were transfected with lentiviral vectors expressing GFP, HNB or HNB where the start site has been mutated (HNB(ATG>TGA)).

MSTO-211H-HNB^i = assay: Proliferation after Doxycycline-induced HNB expression, MSTO-211H-HNB^i; settings: following Doxycycline treatment
Procedure: as §1

Myc protein = assay: Western blot of Myc protein after Doxycycline-induced HNB expression in MSTO-211H-HNB^i; settings: Hi-Myc cell line MSTO-211H-HNB^i; following Doxycycline induction
Procedure: as §1

## HNB: 14 amino acid micro-peptide MKTQLGAVKGFLHV (SEQ ID NO: 1) coded by shORF at Exon 3-4 junction of PVT1ts; expressed from lentiviral vectors
U2OS-HNB^i
  proliferation rate: significant reduction in their proliferation rates
[1]
  proliferation: failed to proliferate
MSTO-211H-HNB^i
  proliferation rate: significant reduction in their proliferation rates
Myc protein
  Myc protein expression (western blot, relative to β-Actin): decreased; also recorded: reduced MYC protein
